Assay results reported in patent US10919914B2, “Heterocyclic compounds and uses thereof” (Infinity Pharmaceuticals, Inc., priority 2016, dated 2021).

Legend:
PI3K δ = PI3K δ (Homo sapiens (Human), UniProt O00329); assay: PI3-Kinase HTRF assay; assay type: biochemical
From the text: A PI3-Kinase HTRF® assay kit (cat No. 33-016) purchased from Millipore Corporation is used to screen compounds provided herein. This assay uses specific, high affinity binding of the GRP1 pleckstrin homology (PH) domain to PIP3, the product of a Class 1A or 1B PI3 Kinase acting on its physiological substrate PIP2. During the detection phase of the assay, a complex is generated between the GST-tagged PH domain and biotinylated short chain PIP3. The biotinylated PIP3 and the GST-tagged PH domain recruited fluorophores (Streptavidin-Allophycocyanin and Europium-labeled anti-GST respectively) to form the fluorescence resonance energy transfer (FRET) architecture, generating a stable time-resolved FRET signal. The FRET complex is disrupted in a competitive manner by non-biotinylated PIP3, a product formed in the PI3 Kinase assay.
PI3 Kinase α, γ or δ activity is assayed using the PI3 Kinase HTRF® assay kit (catalogue No. 33-016) purchased from Millipore Corporation. Purified recombinant PI3Kα (catalogue No. 14-602-K), PI3Kβ (catalogue No. 14-603-K), PI3Kγ (catalogue No. 14-558-K), and PI3Kδ (catalogue No. 14-604-K) are obtained from Millipore Corporation. Purified recombinant PI3K enzyme is used to catalyze the phosphorylation of phosphatidylinositol 4,5-bisphosphate (PIP2 at 10 μM) to phosphatidylinositol 3,4,5-trisphosphate (PIP3) in the presence of 10 μM ATP. The assay is carried out in 384-well format and detected using a Perkin Elmer EnVision Xcite Multilabel Reader. Emission ratios are converted into percent inhibitions and imported into GraphPad Prism software. […] IC50 values are determined using a nonlinear regression model available in GraphPad Prism 5.
Other commercial kits or systems for assaying PI3-K activities are available. The commercially available kits or systems can be used to screen for inhibitors and/or agonists of PI3-Ks including, but not limited to, PI 3-Kinase α, β, δ, and γ. […] The plate is sealed, incubated for 1 hour at room temperature, and then read on an appropriate plate reader. Data is analyzed and IC50s are generated using GraphPad Prism 5.

PI3K γ = PI3K γ (Homo sapiens (Human), UniProt P48736); assay: PI3-Kinase HTRF assay; assay type: biochemical
PI3K γ, sequence (P48736 whole entry, the tested form may be a part): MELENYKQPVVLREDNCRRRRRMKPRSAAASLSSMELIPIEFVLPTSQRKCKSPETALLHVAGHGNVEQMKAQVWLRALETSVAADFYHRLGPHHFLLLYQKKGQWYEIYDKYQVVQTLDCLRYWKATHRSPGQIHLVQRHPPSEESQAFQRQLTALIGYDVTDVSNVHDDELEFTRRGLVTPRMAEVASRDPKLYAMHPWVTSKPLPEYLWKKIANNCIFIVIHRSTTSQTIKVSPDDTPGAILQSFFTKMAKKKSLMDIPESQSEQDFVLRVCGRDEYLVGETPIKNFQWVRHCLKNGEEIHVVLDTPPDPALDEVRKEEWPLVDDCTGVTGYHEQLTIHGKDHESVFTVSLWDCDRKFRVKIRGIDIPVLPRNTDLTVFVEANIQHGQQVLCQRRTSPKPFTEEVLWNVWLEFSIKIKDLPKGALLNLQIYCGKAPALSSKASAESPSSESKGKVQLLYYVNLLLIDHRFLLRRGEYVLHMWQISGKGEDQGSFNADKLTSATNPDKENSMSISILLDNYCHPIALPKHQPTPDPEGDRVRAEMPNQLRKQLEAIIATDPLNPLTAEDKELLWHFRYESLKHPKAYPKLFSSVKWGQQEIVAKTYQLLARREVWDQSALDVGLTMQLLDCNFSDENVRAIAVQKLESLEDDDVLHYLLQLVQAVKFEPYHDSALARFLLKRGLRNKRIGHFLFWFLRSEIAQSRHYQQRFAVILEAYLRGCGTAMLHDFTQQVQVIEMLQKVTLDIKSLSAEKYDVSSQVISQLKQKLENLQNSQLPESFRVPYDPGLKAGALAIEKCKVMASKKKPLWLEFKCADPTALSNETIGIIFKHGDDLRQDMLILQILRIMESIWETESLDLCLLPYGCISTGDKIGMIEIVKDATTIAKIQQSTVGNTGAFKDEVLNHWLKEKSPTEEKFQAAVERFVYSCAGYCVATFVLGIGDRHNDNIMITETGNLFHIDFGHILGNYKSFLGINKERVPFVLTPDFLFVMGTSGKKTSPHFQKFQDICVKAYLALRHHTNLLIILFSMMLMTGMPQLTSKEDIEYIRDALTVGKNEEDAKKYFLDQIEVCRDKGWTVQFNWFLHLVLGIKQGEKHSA
From the text: The biotinylated PIP3 and the GST-tagged PH domain recruited fluorophores (Streptavidin-Allophycocyanin and Europium-labeled anti-GST respectively) to form the fluorescence resonance energy transfer (FRET) architecture, generating a stable time-resolved FRET signal.
Other commercial kits or systems for assaying PI3-K activities are available. […] An exemplary system is PI 3-Kinase (human) HTRF™ Assay from Upstate. […] Briefly, the assay is a time resolved FRET assay that indirectly measures PIP3 product formed by the activity of a PI3-K. The kinase reaction is performed in a microtiter plate (e.g., a 384 well microtiter plate). […] The plate is sealed and incubated for 15 minutes at room temperature. […] The plate is sealed and incubated for 1 hour at room temperature. […] The plate is sealed, incubated for 1 hour at room temperature, and then read on an appropriate plate reader. Data is analyzed and IC50s are generated using GraphPad Prism 5.

[1] = test system: PI3K/Akt/mTOR signaling (phosphorylation of Akt-S473 and S6); assay: Kinase signaling in blood (phosflow); assay type: cell-based; conditions: anti-CD3 stimulated splenocytes or peripheral blood mononuclear cells
Experimental: PI3K/Akt/mTOR signaling is measured in blood cells using the phosflow method (Methods Enzymol. (2007) 434:131-54). This method is by nature a single cell assay so that cellular heterogeneity can be detected rather than population averages. This allows concurrent distinction of signaling states in different populations defined by other markers. Phosflow is also highly quantitative. To test the effects of one or more compounds provided herein, unfractionated splenocytes, or peripheral blood mononuclear cells are stimulated with anti-CD3 to initiate T-cell receptor signaling. The cells are then fixed and stained for surface markers and intracellular phosphoproteins. […]
Similarly, aliquots of whole blood are incubated for 15 minutes with vehicle (e.g., 0.1% DMSO) or kinase inhibitors at various concentrations, before addition of stimuli to crosslink the T cell receptor (TCR) (anti-CD3 with secondary antibody) or the B cell receptor (BCR) using anti-kappa light chain antibody (Fab′2 fragments). […] The level of phosphorylation of kinase substrates such as Akt and S6 are then measured by incubating the fixed cells with labeled antibodies specific to the phosphorylated isoforms of these proteins. The population of cells are then analyzed by flow cytometry.

PI3K δ, sequence (O00329 whole entry, the tested form may be a part): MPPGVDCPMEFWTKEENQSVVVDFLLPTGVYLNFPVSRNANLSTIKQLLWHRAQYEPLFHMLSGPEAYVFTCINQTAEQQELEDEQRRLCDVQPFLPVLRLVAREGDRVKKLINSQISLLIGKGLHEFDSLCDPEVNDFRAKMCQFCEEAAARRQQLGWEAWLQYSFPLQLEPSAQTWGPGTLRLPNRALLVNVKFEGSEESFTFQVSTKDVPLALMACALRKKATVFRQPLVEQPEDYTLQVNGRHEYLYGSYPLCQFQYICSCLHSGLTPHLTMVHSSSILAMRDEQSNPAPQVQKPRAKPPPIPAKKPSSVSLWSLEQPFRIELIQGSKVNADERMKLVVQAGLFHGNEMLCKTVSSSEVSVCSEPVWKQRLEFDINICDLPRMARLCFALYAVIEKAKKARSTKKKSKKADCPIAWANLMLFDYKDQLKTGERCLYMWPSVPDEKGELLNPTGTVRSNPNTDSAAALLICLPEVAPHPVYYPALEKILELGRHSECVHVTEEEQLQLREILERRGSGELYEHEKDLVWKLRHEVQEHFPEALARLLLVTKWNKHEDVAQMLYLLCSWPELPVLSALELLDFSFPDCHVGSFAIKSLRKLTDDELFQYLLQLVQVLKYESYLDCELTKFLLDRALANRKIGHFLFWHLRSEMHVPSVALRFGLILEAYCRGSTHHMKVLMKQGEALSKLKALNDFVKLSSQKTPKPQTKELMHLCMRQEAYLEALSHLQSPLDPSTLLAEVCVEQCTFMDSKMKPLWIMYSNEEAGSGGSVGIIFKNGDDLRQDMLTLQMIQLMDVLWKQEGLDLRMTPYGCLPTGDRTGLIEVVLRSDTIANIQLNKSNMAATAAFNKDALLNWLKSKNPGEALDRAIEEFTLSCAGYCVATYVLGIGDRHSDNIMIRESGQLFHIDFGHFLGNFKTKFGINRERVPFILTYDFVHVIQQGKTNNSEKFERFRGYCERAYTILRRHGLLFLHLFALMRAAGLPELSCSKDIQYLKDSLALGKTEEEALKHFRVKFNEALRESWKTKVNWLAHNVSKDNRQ
PI3K δ, sequence (P27986 whole entry partner, the tested form may be a part): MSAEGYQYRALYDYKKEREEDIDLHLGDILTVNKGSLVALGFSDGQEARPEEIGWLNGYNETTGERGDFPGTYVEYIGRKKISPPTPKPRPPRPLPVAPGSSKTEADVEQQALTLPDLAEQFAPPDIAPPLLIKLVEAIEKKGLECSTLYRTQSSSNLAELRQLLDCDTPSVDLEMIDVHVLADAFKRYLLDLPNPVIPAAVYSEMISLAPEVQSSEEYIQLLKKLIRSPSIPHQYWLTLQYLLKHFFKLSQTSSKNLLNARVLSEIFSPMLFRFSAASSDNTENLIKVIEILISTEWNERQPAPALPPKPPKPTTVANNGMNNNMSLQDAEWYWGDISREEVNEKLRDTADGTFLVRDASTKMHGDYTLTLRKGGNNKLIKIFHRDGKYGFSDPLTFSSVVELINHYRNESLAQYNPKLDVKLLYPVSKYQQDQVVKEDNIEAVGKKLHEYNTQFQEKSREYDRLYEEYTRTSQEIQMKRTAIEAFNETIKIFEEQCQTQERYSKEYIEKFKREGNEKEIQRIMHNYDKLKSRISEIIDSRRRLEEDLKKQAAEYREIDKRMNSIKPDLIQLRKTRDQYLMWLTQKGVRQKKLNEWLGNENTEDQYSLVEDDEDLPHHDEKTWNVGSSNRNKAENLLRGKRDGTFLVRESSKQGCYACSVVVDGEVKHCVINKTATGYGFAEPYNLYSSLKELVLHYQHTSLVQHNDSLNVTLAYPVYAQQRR

| SMILES | IC50 (PI3K δ) | IC50 (PI3K γ) | PI3K δ/PI3K γ IC50 (selectivity) (PI3K γ; δ/γ IC50 selectivity) | Akt phosphorylation (Akt-S473) [1] | S6 phosphorylation [1] |
| --- | --- | --- | --- | --- | --- |
| C[C@H](NC(=O)c1c(N)nn2ccccc12)c1cc2cccc(C#Cc3cnn(C)c3)c2c(=O)n1-c1ccccc1 [Compound 1] | > 10 µM | 0.1 to 0.5 µM | Y (Y = 50 to <850) |  |  |
| C[C@H](NC(=O)c1c(N)nn2ccccc12)c1cc2cccc(Cl)c2c(=O)n1-c1ccccc1 [Compound 31] | 1 to 5 µM |  |  |  |  |
| C[C@H](NC(=O)c1c(N)ncc2ccccc12)c1cc2cccc(Cl)c2c(=O)n1-c1ccccc1 [Compound 3626] | > 10 µM | > 5 µM |  |  |  |
| CO[C@H]1C[C@@H]2CC[C@@H](C)[C@@](O)(O2)C(=O)C(=O)N2CCCC[C@H]2C(=O)O[C@H]([C@H](C)C[C@@H]2CC[C@@H](O)[C@H](OC)C2)CC(=O)[C@H](C)/C=C(\C)[C@@H](O)[C@@H](OC)C(=O)[C@H](C)C[C@H](C)/C=C/C=C/C=C/1C [rapamycin] |  |  |  | enhances | inhibits |
